Results on 1 molecule are retold here after ChEMBL document CHEMBL1156364, “Chondropsin D, a new 37-membered-ring macrolide lactam from the marine sponge Chondropsis species” (J Nat Prod, 2001).

Test [1] is described as follows: Cytotoxicity against human LOX cells after 2 days by XTT assay. The conditions noted are these: 48 h. The format is functional, cell-based.
Another test deals with MOLT-4. Briefly: Cytotoxicity against human MOLT4 cells after 2 days by XTT assay. It is filed as functional, cell-based. The conditions noted are these: MOLT-4, 48 h.

Converted amounts (≈) assume the structure as drawn.

As to `COC(=O)C(C)(C)C(O)C(C)C(=O)C(C)(C)/C=C/C(=O)NC(C(O)C(C)C)C(O)C(C)/C=C(\C)C(O)C(C)CCC(O)C(C)C(=O)NC1C(C)OC(=O)C(C(O)C(=O)O)NC(=O)/C=C/C=C/CC/C=C/C=C/C[C@@H]2C[C@@H](C)C[C@@H](CC(O)C(C)C(O)/C(C)=C/C(C)C(O)/C(C)=C/CC(OC(=O)CC(O)C(=O)O)C(C)C1O)O2` (some centres not stated) [CHONDROPSIN D], the values for the IC50 (in test [1]; with MOLT-4) were 0.01 µg/mL (≈ 0.00629 µM) and 0.25 µg/mL (≈ 0.157 µM), respectively.
